In ChEMBL document CHEMBL5154777, “Alternative approaches utilizing click chemistry to develop next-generation analogs of solithromycin” (2022):
In brackets after ≈: the same amount, converted by molar mass.

What was measured:
Type in all cases: functional
Staphylococcus aureus [1] = experiment: Antibacterial activity against Staphylococcus aureus UCN14
Escherichia coli [2] = experiment: Antibacterial activity against Escherichia coli DK2058G
Escherichia coli [3] = experiment: Antibacterial activity against Escherichia coli SQ171 2058G
Staphylococcus aureus [4] = experiment: Antibacterial activity against Staphylococcus aureus UCN18
Escherichia coli [5] = experiment: Antibacterial activity against Escherichia coli DK3535
Escherichia coli [6] = experiment: Antibacterial activity against Escherichia coli DK
Staphylococcus aureus [7] = experiment: Antibacterial activity against Staphylococcus aureus UCN17
Escherichia coli [8] = experiment: Antibacterial activity against Escherichia coli SQ171
Staphylococcus aureus [9] = experiment: Antibacterial activity against Staphylococcus aureus ATCC 29213
Staphylococcus aureus [10] = experiment: Antibacterial activity against methicillin-resistant Staphylococcus aureus ATCC 43300
Klebsiella pneumoniae = experiment: Antibacterial activity against Klebsiella pneumoniae BAA 2146
Escherichia coli [11] = experiment: Antibacterial activity against Escherichia coli MG1655
Acinetobacter baumannii = experiment: Antibacterial activity against Acinetobacter baumannii 2208 ATCC 19606
Enterobacter cloacae = experiment: Antibacterial activity against Enterobacter cloacae ATCC 13047
Pseudomonas aeruginosa = experiment: Antibacterial activity against Pseudomonas aeruginosa HER 1018
Enterococcus faecium = experiment: Antibacterial activity against Enterococcus faecium NCTC 7171

Compound | MIC (Staphylococcus aureus [1]) | MIC (Escherichia coli [2]) | MIC (Escherichia coli [3]) | MIC (Staphylococcus aureus [4]) | MIC (Escherichia coli [5]) | MIC (Escherichia coli [6]) | MIC (Staphylococcus aureus [7]) | MIC (Escherichia coli [8]) | MIC (Staphylococcus aureus [9]) | MIC (Staphylococcus aureus [10]) | MIC (Klebsiella pneumoniae) | MIC (Escherichia coli [11]) | MIC (Acinetobacter baumannii) | MIC (Enterobacter cloacae) | MIC (Pseudomonas aeruginosa) | MIC (Enterococcus faecium)
CC[C@H]1OC(=O)[C@@](C)(F)C(=O)[C@H](C)[C@@H](O[C@@H]2O[C@H](C)C[C@H](N(C)CCCCn3cc(-c4cccc(N)c4)nn3)[C@H]2O)[C@](C)(OC)C[C@@H](C)C(=O)[C@H](C)C2N(CCCCn3cc(-c4cccc(N)c4)nn3)C(=O)O[C@@]21C (single isomer, unassigned) | > 120 µM | > 31 µM | > 31 µM | > 120 µM | 3.8 µM (≈ 3.97 µg/mL) | 7.7 µM (≈ 8.05 µg/mL) | > 120 µM | > 31 µM | 0.96 µM (≈ 1 µg/mL) |  |  |  |  |  |  | 
CC[C@H]1OC(=O)[C@@](C)(F)C(=O)[C@H](C)[C@@H](O[C@@H]2O[C@H](C)C[C@H](N(C)CCc3cn(C[C@H]4CN(c5ccc(N6CCOCC6)c(F)c5)C(=O)O4)nn3)[C@H]2O)[C@](C)(OC)C[C@@H](C)C(=O)[C@H](C)C2N(CCCCn3cc(-c4cccc(N)c4)nn3)C(=O)O[C@@]21C (single isomer, unassigned) |  |  |  |  |  |  |  |  |  | 0.8 µM (≈ 0.964 µg/mL) | > 200 µM | > 200 µM | > 200 µM | > 200 µM | > 200 µM | 0.2 µM (≈ 0.241 µg/mL)
CC[C@H]1OC(=O)[C@@](C)(F)C(=O)[C@H](C)[C@@H](O[C@@H]2O[C@H](C)C[C@H](N(C)CCCn3cc(-c4cccc(N)c4)nn3)[C@H]2O)[C@](C)(OC)C[C@@H](C)C(=O)[C@H](C)C2N(CCCCn3cc(-c4cccc(N)c4)nn3)C(=O)O[C@@]21C (single isomer, unassigned) | > 120 µM | 16 µM (≈ 16.5 µg/mL) | > 31 µM | > 120 µM | 3.9 µM (≈ 4.02 µg/mL) | 3.9 µM (≈ 4.02 µg/mL) | > 120 µM | > 31 µM | 0.97 µM (≈ 1 µg/mL) |  |  |  |  |  |  | 
CC(=O)NC[C@H]1CN(c2ccc(N3CCOCC3)c(F)c2)C(=O)O1 [LINEZOLID] |  |  |  |  |  |  |  |  |  | 6 µM (≈ 2.02 µg/mL) | > 200 µM | > 200 µM | > 200 µM | > 200 µM | > 200 µM | 6 µM (≈ 2.02 µg/mL)

The next lines start with results.

MIC (Staphylococcus aureus [1]) | MIC (Escherichia coli [2]) | MIC (Escherichia coli [3]) | MIC (Staphylococcus aureus [4]) | MIC (Escherichia coli [5]) | MIC (Escherichia coli [6]) | MIC (Staphylococcus aureus [7]) | MIC (Escherichia coli [8]) | MIC (Staphylococcus aureus [9]) | Compound | MIC (Staphylococcus aureus [10]) | MIC (Klebsiella pneumoniae) | MIC (Escherichia coli [11]) | MIC (Acinetobacter baumannii) | MIC (Enterobacter cloacae) | MIC (Pseudomonas aeruginosa) | MIC (Enterococcus faecium)
> 130 µM | > 31 µM | > 31 µM | > 130 µM | > 31 µM | > 31 µM | > 130 µM | > 31 µM | 0.49 µM (≈ 0.498 µg/mL) | CC[C@H]1OC(=O)[C@@](C)(F)C(=O)[C@H](C)[C@@H](O[C@@H]2O[C@H](C)C[C@H](N(C)CCn3cc(-c4cccc(N)c4)nn3)[C@H]2O)[C@](C)(OC)C[C@@H](C)C(=O)[C@H](C)C2N(CCCCn3cc(-c4cccc(N)c4)nn3)C(=O)O[C@@]21C (single isomer, unassigned) |  |  |  |  |  |  | 
9.5 µM (≈ 8.02 µg/mL) | 2.4 µM (≈ 2.03 µg/mL) | > 38 µM | 4.7 µM (≈ 3.97 µg/mL) | 2.4 µM (≈ 2.03 µg/mL) | 2.4 µM (≈ 2.03 µg/mL) | 9.5 µM (≈ 8.02 µg/mL) | > 38 µM | < 0.074 µM | CC[C@H]1OC(=O)[C@@](C)(F)C(=O)[C@H](C)[C@@H](O[C@@H]2O[C@H](C)C[C@H](N(C)C)[C@H]2O)[C@](C)(OC)C[C@@H](C)C(=O)[C@H](C)C2N(C/C=C/Cn3cc(-c4cccc(O)c4)nn3)C(=O)O[C@@]21C (single isomer, unassigned) |  |  |  |  |  |  | 
> 130 µM | > 32 µM | > 32 µM | > 130 µM | > 32 µM | > 32 µM | > 130 µM | > 32 µM | 0.25 µM (≈ 0.251 µg/mL) | CC[C@H]1OC(=O)[C@@](C)(F)C(=O)[C@H](C)[C@@H](O[C@@H]2O[C@H](C)C[C@H](N(C)CCn3cc(-c4cccnc4)nn3)[C@H]2O)[C@](C)(OC)C[C@@H](C)C(=O)[C@H](C)C2N(CCCCn3cc(-c4cccc(N)c4)nn3)C(=O)O[C@@]21C (single isomer, unassigned) |  |  |  |  |  |  | 
2.4 µM (≈ 2.02 µg/mL) | 2.4 µM (≈ 2.02 µg/mL) | > 38 µM | < 0.074 µM | 2 µM (≈ 1.69 µg/mL) | 2.4 µM (≈ 2.02 µg/mL) | 0.15 µM (≈ 0.126 µg/mL) | > 38 µM | < 0.074 µM | CC[C@H]1OC(=O)[C@@](C)(F)C(=O)[C@H](C)[C@@H](O[C@@H]2O[C@H](C)C[C@H](N(C)C)[C@H]2O)[C@](C)(OC)C[C@@H](C)C(=O)[C@H](C)C2N(C/C=C/Cn3cc(-c4cccc(N)c4)nn3)C(=O)O[C@@]21C (single isomer, unassigned) |  |  |  |  |  |  | 
> 170 µM | 5.3 µM (≈ 4 µg/mL) | > 42 µM | > 170 µM | 11 µM (≈ 8.29 µg/mL) | 0.66 µM (≈ 0.498 µg/mL) | > 170 µM | > 42 µM | 0.66 µM (≈ 0.498 µg/mL) | C=CCN(C)[C@H]1C[C@@H](C)O[C@@H](O[C@@H]2[C@@H](C)C(=O)[C@](C)(F)C(=O)O[C@H](CC)[C@@]3(C)OC(=O)N(CCCCN=[N+]=[N-])C3[C@@H](C)C(=O)[C@H](C)C[C@@]2(C)OC)[C@@H]1O (single isomer, unassigned) |  |  |  |  |  |  | 
> 150 µM | 2.3 µM (≈ 2 µg/mL) | > 37 µM | 150 µM (≈ 131 µg/mL) | 4.6 µM (≈ 4.01 µg/mL) | 2.3 µM (≈ 2 µg/mL) | 150 µM (≈ 131 µg/mL) | > 37 µM | 1.1 µM (≈ 0.958 µg/mL) | C=CCN(C)[C@H]1C[C@@H](C)O[C@@H](O[C@@H]2[C@@H](C)C(=O)[C@](C)(F)C(=O)O[C@H](CC)[C@@]3(C)OC(=O)N(CCCCn4cc(-c5cccc(N)c5)nn4)C3[C@@H](C)C(=O)[C@H](C)C[C@@]2(C)OC)[C@@H]1O (single isomer, unassigned) |  |  |  |  |  |  | 
